Test results published in patent US8106035B2, “25-SO2-substituted analogs of 1μ,25-dihydroxyvitamin D3” (Cytochroma Inc., priority 2002, dated 2012).

Tests used:
MCF-7 cells = assay: [3H]-thymidine proliferation assay with MCF-7 cells; assay type: cell-based; details: together with calcitriol; 1, 10, 50 nM compound; three days
Experimental: (§1) MCF-7 cells were treated with specified concentrations of calcitriol and compound Va for three days. Cells were then incubated with [^3H]-thymidine for 6 h at 37° C. in a humidified atmosphere containing 5% CO2. Plates were harvested and radioactivity measured. Dose response curves in the absence of Va, 1 nM Va, 10 nM Va and 50 nM Va are shown.
[^3H]-thymidine Proliferation Assay with MCF-7 Cells
• 1. Preparation of cell suspension • When MCF-7 cells are 70-80% confluent, aspirate growth media. Wash the cells with 1×PBS. Trypsinize with trypsin-EDTA from the plate, collect cells from the tissue culture flask, centrifuged (500×g, 5 min) and resuspended in growth media. • 2. Cell plating. • Count the cells and adjust the cell density to 25, 000/ml. Add 200 μl per well in a 96 well plate. Incubate plate for 24 h at 37° C. in a humidified atmosphere plus 5% CO2. Aspirate used media and replace with […] per well with proliferation media. • 3. Substrate addition. • Add 25 μl of 1α,25(OH)2D3 (final concentration 10^−6 M, 10^−7 M, 10^−8 M, 10^−9 M, 10^−10 M, 10^−11 M) into each designated well. Add 25 μl of Substrate (final concentration 10^−7 M, 5×10^−8 M, 10^−8 M or 10^−9 M) into each designated well. Incubate plates for 3 days at 37° C. in a humidified atmosphere plus 5% CO2. • 4. ^3H-Thymidine incorporation. • Add ^3H-thymidine at 0.02 μCi per well and incubate at 37° C. in a humidified atmosphere plus 5% CO2 for 6 h. • 5. Plate Harvesting. • Aspirate all media and wash cells with 1×PBS. Trypsinize cells for 30 min at 37° C. in a humidified atmosphere plus 5% CO2. Harvest cells onto a 96 well filter plate (Millipore) using a Tomtec Cell Harvestor, according to manufacturers instructions. • 6. Scintillation Counting. • Add 25 μt of scintillation fluid per well. Count the plate using a scintillation counter. Results: See FIGS. 5-9.

[1] = tested on: normal human epidermal keratinocytes (NHEK); assay: Human epidermal keratinocyte proliferation (HEK) assay, [3H]-thymidine; assay type: cell-based; details: together with calcitriol; 1, 10, 50 nM compound; three days
Experimental: as §1, with “NHEK” for “MCF-7 cells”, “18” for “6”
Human Epidermal Keratinocyte Proliferation (HEK) Assay
• 1. HEK cell media • Supplement KGM media with additional reagents provided in the bullet kit as per supplier's instructions. • Add calcium chloride to final concentration of 0.3 mM. • 2. Calcitriol dilutions
(iii) Procedure: • 2. Cell culture • Thaw one vial of HEK cells containing at least 500 K, and divide into 5 25 cm^2 flasks with 5 ml HEK cell media. 24 h later, remove media and replenish with 5 ml fresh media. Change media again 48 h later. • 3. Preparation of cell suspension • On the day of the assay, wash the monolayer of HEK cells once with 1×PBS buffer (provided in reagent pack) and then trypsinize for 5 min at 37° C. Add trypsin neutralizing solution (provided in reagent pack). Collect cells into tube, centrifuge cells (500×g, 5 min) and resuspend in HEK cell media. Count cells and adjust density to 150,000 cells/ml. Dilute cells further 1:30 with HEK cell media. • 2. Cell plating • Add 150 μl of cell suspension to appropriately labelled wells of a 96-well plate. Incubate plate for 48 h at 37° C. in a humidified atmosphere containing 5% CO2 for adherence of cells to wells. • 3. Compound addition • Add 25 μl of calcitriol (10^−6 to 10^−11 M, final) and add 25 μl of substrate (10^−7 to 10^−10 M, final) and incubate for 32 hours at 37° C. in a humidified atmosphere containing 5% CO2. • 4. Cell harvesting and counting • Add 0.2 μCi/well of [^3H]-thymidine in 20 μl of HEK cell media to each well. Incubate plates for 18 h at 37° C. in a humidified atmosphere containing 5% CO2. Aspirate media and wash with 1×PBS. Trypsinize cells for 30 min at 37° C. in a humidified atmosphere containing 5% CO2. Harvest cells onto filter plates using Tomtec cell harvester as per manufacturer's instructions. Add 25 μl scintillation fluid per well. Measure radioactivity using a scintillation counter. All values were normalized for background. Results; See FIGS. 1-4

SCC-25 cells = assay: [3H]-thymidine proliferation assay with SCC-25 cells; assay type: cell-based; details: together with calcitriol; 1, 10, 50 nM compound; three days
Experimental: as §1, with “SCC-25” for “MCF-7”
[^3H]-thymidine Proliferation Assay with SCC-25 Cells
• 1. Preparation of cell suspension • When SCC-25 cells are 70-80% confluent, aspirate media. Wash the cells with 1×PBS. Trypsinize with trypsin-EDTA from the plate, collect cells from the tissue culture flask, centrifuged (500×g, 5 min) and resuspended in media. • 2. Cell plating. • Count the cells and adjust the cell density to 10,000/ml. Add 200 μl per well in a 96 well plate. Incubate plate for 24 h at 37° C. in a humidified atmosphere plus 5% CO2. Aspirate used media and replace with 150 μl per well with media. • 3. Compound addition. • Add 25 μl of 1α,25(OH)2D3 (final concentration 10^−6 M, 10^−7 M, 10^−8 M, 10^−9 M, 10^−10 M, 10^−11 M) into each designated well. Add 25 μL of Substrate (final concentration 10^−7 M, 5×10^−8 M, 10^−8 M or 10^−9 M) into each designated well. Incubate plates for 3 days at 37° C. in a humidified atmosphere plus 5% CO2. • 4. ^3H-Thymidine incorporation. • Add ^3H-thymidine at 0.02 μCi per well and incubate at 37° C. in a humidified atmosphere plus 5% CO2 for 6 h. • 5. Plate Harvesting. • Aspirate all media and wash cells with 1×PBS. Trypsinize cells for 30 min at 37° C. in a humidified atmosphere plus 5% CO2. Harvest cells onto a 96 well filter plate (Millipore) using a Tomtec Cell Harvestor, according to manufacturers instructions. • 6. Scintillation Counting. • Add 25 μl of scintillation fluid per well. Count the plate using a scintillation counter. Results: See FIGS. 10-13.

CYP24 = target: T1, CYP24 (Homo sapiens, UniProt Q07973); assay: In vitro test for selective inhibition of CYP24 (standard protocol, ketoconazole control); assay type: biochemical; details: in comparison to CYP27A1 and CYP27B1
T1 sequence (Q07973 36-514): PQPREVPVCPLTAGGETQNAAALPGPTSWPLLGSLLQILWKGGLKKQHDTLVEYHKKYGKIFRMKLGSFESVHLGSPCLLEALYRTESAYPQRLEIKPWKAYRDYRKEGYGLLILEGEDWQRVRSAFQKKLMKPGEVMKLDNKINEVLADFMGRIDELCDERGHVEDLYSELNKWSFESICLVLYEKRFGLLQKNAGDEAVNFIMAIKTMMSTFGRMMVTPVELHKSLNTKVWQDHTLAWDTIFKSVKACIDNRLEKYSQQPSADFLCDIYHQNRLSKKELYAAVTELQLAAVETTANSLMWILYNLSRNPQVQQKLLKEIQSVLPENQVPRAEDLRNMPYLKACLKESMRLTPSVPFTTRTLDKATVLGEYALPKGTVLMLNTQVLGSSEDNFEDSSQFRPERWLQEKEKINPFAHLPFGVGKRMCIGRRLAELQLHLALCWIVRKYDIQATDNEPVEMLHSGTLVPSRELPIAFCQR
Experimental: Selectively inhibiting the cytochrome P450 enzymatic pathway, through which 1α,25-dihydroxyvitamin D3 is catabolized (mainly via C-24 hydroxylation), is one important way to prolong the lifetime of this hormone, or analogs thereof. Therefore, the compounds of Formula I were tested in vitro, using a standard protocol, for their ability to inhibit specifically CYP24, an enzyme responsible for 24-hydroxylation of 1α,25-dihydroxyvitamin D3. Antimycotic ketoconazole, a drug used clinically for chemotherapy of human prostate cancer (Trachtenberg, J. et al. J. Urol. 1984, J32, 61-63), was used as a control standard for inhibition of CYP24.

[2] = Antiproliferative activity of the compound of Formula VI (test not specified); assay type: cell-based; details: present invention
Description: The preparation of the compound of Formula VI was previously reported (Wang, Q. PhD Thesis, 2000, Johns Hopkins University). The ability of the compound of Formula VI to selectively modulate CYP24 activity has not been reported. […] Accordingly, the present invention is the first to find that the compound of Formula VI is useful in the methods of the invention.

SMILES	inhibition of MCF-7 cells ([3H]-thymidine incorporation) (MCF-7 cells)	inhibition of NHEK ([3H]-thymidine incorporation) [1]	inhibition of SCC-25 cells ([3H]-thymidine incorporation) (SCC-25 cells)	selective inhibition of CYP24 activity (CYP24)	antiproliferative activity [2]
C[C@H](C/C=C(\F)S(=O)(=O)C(C)(C)C)C1=CC[C@H]2/C(=C/C=C3C[C@@H](O)C[C@H](O)C3)CCC[C@]12C [Ia(xi)]	act to inhibit MCF-7 cells	–	–	–	–
C=C1/C(=C\C=C2/CCC[C@]3(C)C([C@H](C)CCC(C)(C)S(=O)(=O)C(C)(C)C)=CCC23)C[C@@H](O)C[C@@H]1O (some centres unmarked) [IVa, 16-ene-24-dimethyl-25-SO2-TB1]	act to inhibit MCF-7 cells	act to inhibit normal human epidermal keratinocytes	act to inhibit SCC-25 cells	–	–
C=C1/C(=C\C=C2/CCC[C@]3(C)C([C@H](C)C/C=C(/F)S(=O)(=O)C(C)(C)C)=CC[C@@H]23)C[C@@H](O)C[C@@H]1O [Ib(v)]	act to inhibit MCF-7 cells	act to inhibit normal human epidermal keratinocytes	act to inhibit SCC-25 cells	–	–
C=C1/C(=C\C=C2/CCC[C@@]3(C)C2CC[C@@H]3[C@H](C)CCC2(S(=O)(=O)C(C)(C)C)CC2)C[C@@H](O)C[C@@H]1O (some centres unmarked) [IIa]	–	act to inhibit normal human epidermal keratinocytes	act to inhibit SCC-25 cells	–	–
C=C1/C(=C\C=C2/CCC[C@]3(C)[C@@H]([C@H](C)CCCS(=O)(=O)c4ccc(F)cc4)CC[C@@H]23)C[C@@H](O)C[C@@H]1O [Va]	act to inhibit MCF-7 cells	act to inhibit normal human epidermal keratinocytes	act to inhibit SCC-25 cells	–	–
C=C1/C(=C\C=C2/CCCC3(C)C(C(C)CCC4(S(=O)(=O)C(C)(C)C)CC4)=CCC23)CC(O)CC1O (centres unmarked) [Formula VI]	–	–	–	shows selective inhibition of CYP24 activity	does have antiproliferative activity
